Our source for the IC50 values is ChEMBL document CHEMBL1145863, “Design and synthesis of dihydrofolate reductase inhibitors encompassing a bridging ester group. Evaluation in a mouse colitis model” (J Med Chem, 2003).

The assay concerns the target T1, Dihydrofolate reductase (Rattus norvegicus, UniProt Q920D2).
T1 sequence (Q920D2 whole entry): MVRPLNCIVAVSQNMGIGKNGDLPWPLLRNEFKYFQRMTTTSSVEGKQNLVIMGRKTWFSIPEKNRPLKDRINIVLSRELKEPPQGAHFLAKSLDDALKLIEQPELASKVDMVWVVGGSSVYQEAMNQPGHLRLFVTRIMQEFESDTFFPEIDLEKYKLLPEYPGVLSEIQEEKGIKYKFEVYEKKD
Description: Inhibition of rat liver Dihydrofolate reductase (rlDHFR).

What is called IC50 is the concentration needed to halve the response being measured. The low end stands for greater potency, the high end for weaker potency. As to `Nc1nc(N)c2cc(COC(=O)c3ccc(C(=O)N[C@@H](CCCC(=O)O)C(=O)O)cc3)ccc2n1`, inhibition was half-maximal at 160 nM (IC50).

With `Nc1nc(N)c2cc(COC(=O)c3ccc(C(=O)N[C@H](CCC(=O)O)C(=O)O)cc3)ccc2n1`, 150 nM corresponded to half-maximal inhibition (IC50).
